Laboratory results as given in patent US8778939B2, “Compounds” (Glaxo Group Limited, priority 2009, dated 2014).

Columns and labels:
Type in all cases: biochemical
[1] = molecular target: T1, 6His-Tev-LRRK2 (1326-2527) (Homo sapiens, UniProt Q5S007); test: LRRK2 peptide substrate assay; conditions: Biotin-LRRKtide peptide substrate, ATP at Km; read-out: pIC50 in the LRRK2 peptide substrate assay (converted)
T1 construct: A LRRK2 cDNA encoding residues 1326-2527 was received from Dundee University; made in house; host or cells: Spodoptera frugiperda (Sf9) insect cells, baculovirus
T1 sequence (Q5S007 1326-2527): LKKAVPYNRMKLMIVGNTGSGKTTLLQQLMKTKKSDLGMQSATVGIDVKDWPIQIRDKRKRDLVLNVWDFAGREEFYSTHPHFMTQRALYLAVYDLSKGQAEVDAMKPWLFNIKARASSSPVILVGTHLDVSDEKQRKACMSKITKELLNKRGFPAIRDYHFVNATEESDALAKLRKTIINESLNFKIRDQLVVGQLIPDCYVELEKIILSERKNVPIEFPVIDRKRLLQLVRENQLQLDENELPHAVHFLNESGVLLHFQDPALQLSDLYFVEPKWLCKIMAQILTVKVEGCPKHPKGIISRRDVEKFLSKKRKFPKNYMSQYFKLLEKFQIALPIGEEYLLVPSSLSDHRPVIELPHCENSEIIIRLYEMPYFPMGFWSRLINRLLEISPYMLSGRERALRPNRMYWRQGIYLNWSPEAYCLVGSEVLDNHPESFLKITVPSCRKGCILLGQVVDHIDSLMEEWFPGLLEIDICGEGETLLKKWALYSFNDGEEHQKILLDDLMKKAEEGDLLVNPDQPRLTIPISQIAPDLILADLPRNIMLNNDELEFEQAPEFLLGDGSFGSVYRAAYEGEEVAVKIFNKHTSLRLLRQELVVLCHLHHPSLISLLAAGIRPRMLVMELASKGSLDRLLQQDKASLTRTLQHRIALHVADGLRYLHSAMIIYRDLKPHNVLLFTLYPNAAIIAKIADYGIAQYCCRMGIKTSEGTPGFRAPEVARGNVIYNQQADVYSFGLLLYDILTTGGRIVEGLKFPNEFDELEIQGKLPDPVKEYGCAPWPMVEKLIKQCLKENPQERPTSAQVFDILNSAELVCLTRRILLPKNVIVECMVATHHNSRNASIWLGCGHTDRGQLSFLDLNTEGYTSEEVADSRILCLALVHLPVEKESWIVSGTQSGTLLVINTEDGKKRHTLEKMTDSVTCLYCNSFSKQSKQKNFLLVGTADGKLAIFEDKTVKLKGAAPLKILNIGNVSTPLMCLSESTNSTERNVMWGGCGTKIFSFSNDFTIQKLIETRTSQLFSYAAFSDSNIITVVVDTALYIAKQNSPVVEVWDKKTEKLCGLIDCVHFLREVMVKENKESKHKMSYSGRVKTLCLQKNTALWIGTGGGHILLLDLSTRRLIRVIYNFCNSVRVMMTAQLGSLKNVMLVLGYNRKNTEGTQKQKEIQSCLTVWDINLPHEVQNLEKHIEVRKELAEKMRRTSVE
Procedure, shortened: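 Phosphorylation of biotin-LRRKtide/moesin substrate read by time-resolved FRET (Eu anti-rabbit IgG, streptavidin-APC, phospho-ERM Thr558 antibody; 665/620 nm). The 6His-Tev-LRRK2 (1326-2527) enzyme solution was 80 nM, in 50 mM Hepes pH 7.2 with 10 mM MgCl2 and 1 mM DTT. Incubation 1-2 h at room temperature; compounds tested up to 30 μM final, 1:4 dilutions.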

[2] = molecular target: T1, 6His-Tev-LRRK2 (1326-2527); test: LRRK2 AlphaScreen protein substrate assay; conditions: GST-PS-Moesin (400-577) substrate, ATP at Km; read-out: pIC50 in the LRRK2 alphascreen protein substrate assay (converted)
Method: a) 100 nl of a 1:4 serial dilution of test compound with a top final assay concentration of 30 μM is added to certain wells in a low volume 384 well black plate. 100 nl of DMSO is used in certain wells as controls.
b) 3 μl enzyme solution (80 nM purified recombinant 6His-Tev-LRRK2 (1326-2527) in assay buffer: 50 mM Hepes (pH 7.2), 10 mM MgCl2, 150 mM NaCl, 5% glycerol, 0.0025% triton X-100 and 1 mM DTT) is added to certain wells.
Plates are then incubated for a further 1-2 hours at room temperature (incubation time varies depending upon rate and linearity of reaction with differing enzyme batches).
d) 6 μl detection solution (1:250 dilution of AlphaLisa Protein A Acceptor beads (PerkinElmer), 1:64 dilution of AlphaLisa Gluthathione Donor beads (PerkinElmer) and 1:600 dilution (dilution determined on a batch to batch basis) of Phospho-Ezrin (Thr567)/Radixin (Thr564)/Moesin (Thr558) Polyclonal Antibody (New England Biolabs) in a buffer: 50 mM Hepes (pH 7.5), 250 mM NaCl, 60 mM EDTA, 1% PEG and 0.01% Brij 35) is added to each well. Plates are then incubated for a further 2 hours at room temperature in the dark before reading on an EnVision™ plate reader with AlphaScreen HTS turbo option module and AlphaScreen settings. Data is analysed using ActivityBase software (IDBS).

[3] = molecular target: T1, 6His-Tev-LRRK2 (1326-2527); test: LRRK2 AlphaScreen desensitised protein substrate assay; conditions: excess of ATP present (2 mM ATP); read-out: pIC50 in the LRRK2 alphascreen desensitised protein substrate assay (converted)
Procedure, shortened: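 AlphaScreen readout with phospho-Ezrin/Radixin/Moesin antibody after a 20 min room-temperature reaction at 2 mM ATP (substrate solution). Enzyme: 6His-Tev-LRRK2 (1326-2527) at 80 nM in enzyme solution, Hepes pH 7.2 buffer; test compound serially diluted 1:4 from 30 μM final.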

SMILES	IC50 [1]	IC50 [2]	IC50 [3]
CN1CCN(c2ccc(OCc3ccccc3)c(C(=O)Nc3cccnc3)c2)CC1 [Example 32, 5-(4-Methyl-1-piperazinyl)-2-[(phenylmethyl)oxy]-N-3-pyridinylbenzamide]	≤ 0.01 µM	≤ 0.1 µM	≤ 20 µM
O=C(Nc1cccnc1)c1cc(N2CCCCC2)ccc1OCc1ccccc1 [Example 33, 2-[(Phenylmethyl)oxy]-5-(1-piperidinyl)-N-3-pyridinylbenzamide]	≤ 0.1 µM	≤ 0.1 µM	≤ 20 µM
O=C(Nc1cccnc1)c1cc(Br)ccc1OCc1cccc(Cl)c1 [Example 13, 5-Bromo-2-{[(3-chlorophenyl)methyl]oxy}-N-3-pyridinylbenzamide]	≤ 0.1 µM	≤ 0.1 µM	> 25.1 µM
CC(C)c1ccc(OCc2ccccc2)c(C(=O)Nc2cccnc2)c1 [Example 1, 5-(1-Methylethyl)-2-[(phenylmethyl)oxy]-N-3-pyridinylbenzamide]	≤ 0.1 µM	≤ 0.1 µM	≤ 20 µM
CN1CCC(Oc2ccc(OCc3ccccc3)c(C(=O)Nc3cccnc3)c2)CC1 [Example 31, 5-[(1-Methyl-4-piperidinyl)oxy]-2-[(phenylmethyl)oxy]-N-3-pyridinylbenzamide]	≤ 0.1 µM	≤ 0.1 µM	≤ 20 µM
CN(C)CCOc1ccc(OCc2ccccc2)c(C(=O)Nc2cccnc2)c1 [Example 30, 5-{[2-(Dimethylamino)ethyl]oxy}-2-[(phenylmethyl)oxy]-N-3-pyridinylbenzamide]	≤ 0.1 µM	≤ 0.1 µM	≤ 20 µM

More lines, main results first:

IC50 [1]	IC50 [2]	SMILES	IC50 [3]
≤ 0.1 µM	≤ 0.1 µM	O=C(Nc1cccnc1)c1cc(O)ccc1OCc1ccccc1 [Example 29, 5-Hydroxy-2-[(phenylmethyl)oxy]-N-3-pyridinylbenzamide]	≤ 20 µM
≤ 0.1 µM	≤ 0.1 µM	O=C(Nc1cccnc1)c1cc(Br)ccc1OCc1ccccc1 [Example 2, 5-Bromo-2-[(phenylmethyl)oxy]-N-3-Pyridinylbenzamide]	≤ 20 µM
≤ 0.1 µM	≤ 0.1 µM	N#Cc1ccc(OCc2ccccc2)c(C(=O)Nc2cccnc2)c1 [Example 8, 5-Cyano-2-[(phenylmethyl)oxy]-N-3-pyridinylbenzamide]	≤ 20 µM
